Where “and” joins values, the source holds several entries; their conditions need not be identical. Equal entries are not always repeated. Square brackets hold non-standard residues; d marks the D form. Peptide text beside a SMILES is read from it. Ava = NCCCCC(=O)O
Assays:
Assay type in all cases: cell-based
HIV-1 NL 4-3 [1] = assay: HIV-1 infection of C8166 cells (syncytia formation, p24 ELISA) with HIV-1 NL 4-3; conditions: for Day 7 syncitia formed / P 24: Table 6; for P 24: Day 7
Method in brief: (§1)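 C8166 T-cells were preincubated with peptide for 1 h at 37 °C, then exposed for 1 h to HIV-1 at 1000 TCID50/ml, washed, and cultured with peptide kept present throughout, with medium replaced at day 4. Infection was scored by syncytia formation and by supernatant p24 ELISA, with at least two runs in duplicate.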

HIV-1 NDK = assay: HIV-1 infection of C8166 cells (syncytia formation, p24 ELISA) with HIV-1 NDK; design: key to syncitia formed, Day 4 / syncitia formed, Day 5 / syncitia formed, Day 6 / syncitia formed, Day 7: ++, +, (+), (+)− and − represent decreasing numbers of syncitia formed; ++, +, (+), (+)− and − represent decreasing numbers of syncitia formed; ++, +, (+), (+)− and − represent decreasing numbers of syncitia formed; ++, +, (+), (+)− and − represent decreasing numbers of syncitia formed; ++, +, (+), (+)− and − represent decreasing numbers of syncitia formed; conditions: for P 24: P 24 after Day 7
Method in brief: as §1

HIV-1 NL 4-3 [2] = assay: HIV-1 infection of C8166 cells (syncytia formation, p24 ELISA) with HIV-1 NL 4-3; design: key: ++, +, (+), (+)− and − represent decreasing numbers of syncitia formed; ++, +, (+), (+)− and − represent decreasing numbers of syncitia formed; ++, +, (+), (+)− and − represent decreasing numbers of syncitia formed; ++, +, (+), (+)− and − represent decreasing numbers of syncitia formed; ++, +, (+), (+)− and − represent decreasing numbers of syncitia formed; conditions: Table 6
Method in brief: as §1

[3] = C8166 cells, HIV-1 subtype B NL 4-3, Table 9, two lines = tested twice, 8 days apart

C[C@H](NC(=O)[C@H](CCCNC(=N)N)NC(=O)CNC(=O)[C@@H]1CCCN1C(=O)CN)C(=O)N[C@@H](Cc1ccccc1)C(=O)NCCCCC(=O)O [SPC3 monomer valeric acid, GPGRAF-NHCH2CH2CH2CH2COOH] (H-GPGRAF[Ava]-OH; N-terminus assumed)
Day 7 syncitia formed (HIV-1 NL 4-3 [1]; 0.005 μM): ++/T
Day 7 syncitia formed (HIV-1 NL 4-3 [1]; 0.01 μM): ++/T
IC50 (HIV-1 NL 4-3 [1]; C8166 cells, HIV-1 subtype B NL 4-3, Table 3): 20 nM
IC50 (HIV-1 NL 4-3 [1]; [3]): 50 nM
IC100 (HIV-1 NL 4-3 [1]; [3]): 5 µM
P 24 (HIV-1 NL 4-3 [1]; 0.005 μM): 23810 pg/mL
P 24 (HIV-1 NL 4-3 [1]; 0.01 μM): 21810 pg/mL
P 24 (HIV-1 NL 4-3 [1]; 0.5 μM): 1840 pg/mL and 2830 pg/mL
P 24 (HIV-1 NL 4-3 [1]; 1 μM): 325 pg/mL and 445 pg/mL
P 24 (HIV-1 NL 4-3 [1]; 5 μM): 3 pg/mL
syncitia formed, Day 4 (HIV-1 NDK; 0.005 μM): −
syncitia formed, Day 5 (HIV-1 NDK; 0.005 μM): +
syncitia formed, Day 6 (HIV-1 NDK; 0.005 μM): ++
syncitia formed, Day 7 (HIV-1 NDK; 0.005 μM): ++/T
P 24 (HIV-1 NDK; 0.005 μM): 23810 pg/mL
syncitia formed, Day 4 (HIV-1 NDK; 0.01 μM): −
syncitia formed, Day 5 (HIV-1 NDK; 0.01 μM): +
syncitia formed, Day 6 (HIV-1 NDK; 0.01 μM): ++
syncitia formed, Day 7 (HIV-1 NDK; 0.01 μM): ++/T
P 24 (HIV-1 NDK; 0.01 μM): 21810 pg/mL
syncitia formed, Day 4 (HIV-1 NDK; 0.05 μM): −
syncitia formed, Day 5 (HIV-1 NDK; 0.05 μM): +
syncitia formed, Day 6 (HIV-1 NDK; 0.05 μM): ++
syncitia formed, Day 7 (HIV-1 NDK; 0.05 μM): ++
P 24 (HIV-1 NDK; 0.05 μM): 23810 pg/mL and 21810 pg/mL
syncitia formed, Day 4 (HIV-1 NDK; 0.1 μM): −
syncitia formed, Day 5 (HIV-1 NDK; 0.1 μM): +
syncitia formed, Day 6 (HIV-1 NDK; 0.1 μM): ++
syncitia formed, Day 7 (HIV-1 NDK; 0.1 μM): ++
P 24 (HIV-1 NDK; 0.1 μM): 11810 pg/mL and 15307 pg/mL
syncitia formed, Day 4 (HIV-1 NDK; 0.5 μM): −
syncitia formed, Day 5 (HIV-1 NDK; 0.5 μM): −
syncitia formed, Day 6 (HIV-1 NDK; 0.5 μM): +
syncitia formed, Day 7 (HIV-1 NDK; 0.5 μM): ++
P 24 (HIV-1 NDK; 0.5 μM): 11840 pg/mL and 12240 pg/mL
syncitia formed, Day 4 (HIV-1 NDK; 1 μM): −
syncitia formed, Day 5 (HIV-1 NDK; 1 μM): −
syncitia formed, Day 6 (HIV-1 NDK; 1 μM): −
syncitia formed, Day 7 (HIV-1 NDK; 1 μM): (+)
syncitia formed, Day 4 (HIV-1 NDK; 5 μM): −
syncitia formed, Day 5 (HIV-1 NDK; 5 μM): −
syncitia formed, Day 6 (HIV-1 NDK; 5 μM): −
syncitia formed, Day 7 (HIV-1 NDK; 5 μM): −
IC50 (HIV-1 NDK; HIV 1 NDK, Table 10): 200 nM
IC100 (HIV-1 NDK; HIV 1 NDK, Table 10): 5 µM
Day 4 syncitia formed (HIV-1 NL 4-3 [2]; 0.005 μM): −
Day 5 syncitia formed (HIV-1 NL 4-3 [2]; 0.005 μM): +
Day 6 syncitia formed (HIV-1 NL 4-3 [2]; 0.005 μM): ++
Day 4 syncitia formed (HIV-1 NL 4-3 [2]; 0.01 μM): −
Day 5 syncitia formed (HIV-1 NL 4-3 [2]; 0.01 μM): +
Day 6 syncitia formed (HIV-1 NL 4-3 [2]; 0.01 μM): ++
Day 4 syncitia formed (HIV-1 NL 4-3 [2]; 0.05 μM): −
Day 5 syncitia formed (HIV-1 NL 4-3 [2]; 0.05 μM): +
Day 6 syncitia formed (HIV-1 NL 4-3 [2]; 0.05 μM): ++
Day 7 syncitia formed (HIV-1 NL 4-3 [2]; 0.05 μM): ++
Day 4 syncitia formed (HIV-1 NL 4-3 [2]; 0.1 μM): −
Day 5 syncitia formed (HIV-1 NL 4-3 [2]; 0.1 μM): (+)
Day 6 syncitia formed (HIV-1 NL 4-3 [2]; 0.1 μM): + and ++
Day 7 syncitia formed (HIV-1 NL 4-3 [2]; 0.1 μM): ++
Day 4 syncitia formed (HIV-1 NL 4-3 [2]; 0.5 μM): −
Day 5 syncitia formed (HIV-1 NL 4-3 [2]; 0.5 μM): −
Day 6 syncitia formed (HIV-1 NL 4-3 [2]; 0.5 μM): (+)
Day 7 syncitia formed (HIV-1 NL 4-3 [2]; 0.5 μM): +
Day 4 syncitia formed (HIV-1 NL 4-3 [2]; 1 μM): −
Day 5 syncitia formed (HIV-1 NL 4-3 [2]; 1 μM): −
Day 6 syncitia formed (HIV-1 NL 4-3 [2]; 1 μM): −
Day 7 syncitia formed (HIV-1 NL 4-3 [2]; 1 μM): (+)
Day 4 syncitia formed (HIV-1 NL 4-3 [2]; 5 μM): −
Day 5 syncitia formed (HIV-1 NL 4-3 [2]; 5 μM): −
Day 6 syncitia formed (HIV-1 NL 4-3 [2]; 5 μM): −
Day 7 syncitia formed (HIV-1 NL 4-3 [2]; 5 μM): −
